The record followed here is patent US5470950A, “Biologically active amphiphilic peptide compositions and uses therefor” (Magainin Pharmaceuticals Inc., priority 1994, dated 1995).

Ends that are not written are not given here.

Holding throughout (experiment): Antibacterial MIC assay (NCCLS M7-T2 microtiter broth dilution)
Holding throughout (assay type): cell-based
On the technique in general: Dilution methods test growth across graded concentrations, often in twofold steps.

For one experiment, the system named is E.coli ATCC strain 25922. The following applies: E. coli ATCC 25922; Mueller Hinton broth, 16-20 hours at 37° C.; lowest concentration giving a clear well. From the text:
(§1) Table I, which follows, indicates the Minimal Inhibitory Concentration (MIC) in μg/ml of Peptides (SEQ ID NO:1) through (SEQ ID NO:3), (SEQ ID NO:5), (SEQ ID NO:6), (SEQ ID NO:9) through (SEQ ID NO:11), and (SEQ ID NO:17) against S.aureus strain ATCC 25923, P. aeruginosa strain ATCC 27853, and E.coli ATCC strain 25922. The procedure for the antibacterial assay is based upon the guidelines of the National Committee for Clinical Laboratory Standards, Document M7-T2, Volume 8, No. 8, 1988. Stock solutions of peptides (SEQ ID NO: 1) through (SEQ ID NO:3), (SEQ ID NO:5), (SEQ ID NO:S), (SEQ ID NO:9) through (SEQ ID NO:12), and […] in accordance with the present invention are prepared at a concentration of 512 μg/ml in sterile deionized distilled water and stored at -70° C. Each peptide is a C-terminal amide and may or may not be acetylated at the N-Terminus. An acetyl group at the N-terminus is indicated by an X. The stock peptide solution is diluted in serial dilutions (1:2) down the wells of a microtiter plate so that the final concentrations of peptides in the wells are 0.25, 0.50, i, 2,4, 8, 16, 32, 64, 128, and 256 μg/ml. 1-5×10^5 CFUs/ml of either S. aureus ATCC 25923, E. coli ATCC 25922, or P. aeruginosa ATCC 27853 were added to the wells in full strength Mueller Hinton broth (BBL 11443) from a mid-log culture. The inoculum is standardized spectrophotometrically at 600 nm and is verified by colony counts. The plates are incubated for 16-20 hours at 37° C., and the minimal inhibitory concentration (MIC) for each peptide is determined. Minimal inhibitory concentration is defined as the lowest concentration of peptide which produces a clear well in the microtiter plate. The minimal inhibitory concentration of each of (SEQ ID NO:1) through (SEQ ID NO:3), (SEQ ID NO:5), (SEQ ID NO:6), (SEQ ID NO:9) through (SEQ ID NO:11), and (SEQ ID NO:17) is given in Table I below.

Experiment [1] deals with S. aureus strain ATCC 25923. The following applies: S. aureus ATCC 25923; Mueller Hinton broth, 16-20 hours at 37° C.; lowest concentration giving a clear well.
Description: as §1

For experiment [2], the system named is P. aeruginosa strain ATCC 27853. The following applies: P. aeruginosa ATCC 27853; Mueller Hinton broth, 16-20 hours at 37° C.; lowest concentration giving a clear well.
Description: as §1

In the case of “Ac-LKLLKKLLKKNKKLLKKL-NH2 [X-(SEQ ID NO: 9)-NH2]”, the “Minimal Inhibitory Concentration E. coli” value with E.coli ATCC strain 25922 was determined as 64 µg/mL. Further, the “Minimal Inhibitory Concentration S. aureus” value in experiment [1] came to 16 µg/mL. Besides, the “Minimal Inhibitory Concentration P. aeruginosa” value in experiment [2] came to 8 µg/mL.
As for “Ac-LKKLKKLLKLL-NH2 [X-(SEQ ID NO: 1)-NH2]”, in the experiment with E.coli ATCC strain 25922, the “Minimal Inhibitory Concentration E. coli” value turned out to be 4 µg/mL. The “Minimal Inhibitory Concentration S. aureus” value in experiment [1] came out at 16 µg/mL. Moreover, the “Minimal Inhibitory Concentration P. aeruginosa” value in experiment [2] is reported as 4,8 μg/ml.
On the same counts, the results for “Ac-KLLKKLKKLLKLL-NH2 [X-(SEQ ID NO: 3)-NH2]” are 8,16 μg/ml, 64 µg/mL and 16 µg/mL.
On to “Ac-LLKKLKKLLKLL-NH2 [X-(SEQ ID NO: 2)-NH2]”, for which the “Minimal Inhibitory Concentration E. coli” value in the experiment on E.coli ATCC strain 25922 is listed as 8,16 μg/ml. Moreover, the “Minimal Inhibitory Concentration S. aureus” value in experiment [1] amounted to 16 µg/mL. The “Minimal Inhibitory Concentration P. aeruginosa” value in experiment [2] was 16 µg/mL.
For “Ac-KKLLKKLKKLLKKLRR-NH2 [X-(SEQ ID NO: 5)-NH2]”, the “Minimal Inhibitory Concentration E. coli” value in the experiment on E.coli ATCC strain 25922 is 32 µg/mL. In experiment [1], the “Minimal Inhibitory Concentration S. aureus” value worked out at 4 µg/mL. Also, in experiment [2], the “Minimal Inhibitory Concentration P. aeruginosa” value stood at 8 µg/mL.
For “Ac-LKLLKKLLKKPKKLLKKL-NH2 [X-(SEQ ID NO: 10)-NH2]” the same measures were 64 µg/mL, 16,32 μg/ml and 16 µg/mL.
For LKKLKKLLKLL-NH2 [(SEQ ID NO.: 1)-NH2] the same measures were 8,16 μg/ml, 64,128 μg/ml and 8,16 μg/ml.
On the same counts, the results for LKKLLKKLKKL-NH2 [(SEQ ID NO: 17)-NH2] are 64,128 μg/ml, over 256 µg/mL and 32,64 μg/ml.
LLKKLKKLLKLL-NH2 [(SEQ ID NO.:2)-NH2]: the “Minimal Inhibitory Concentration E. coli” value in the experiment on E.coli ATCC strain 25922 is reported as 8,16 μg/ml. In addition, in experiment [1], the “Minimal Inhibitory Concentration S. aureus” value was 16 µg/mL. Further, in experiment [2], the “Minimal Inhibitory Concentration P. aeruginosa” value came to 16 µg/mL.
For KLLKKLKKLLKLL-NH2 [(SEQ ID NO.:3)-NH2], the “Minimal Inhibitory Concentration S. aureus” value in experiment [1] turned out to be 64 µg/mL. Further, in experiment [2], the “Minimal Inhibitory Concentration P. aeruginosa” value is 16 µg/mL.
Regarding “Ac-LKKLLKKLKKL-NH2 [X-(SEQ ID NO: 17)-NH2]”, the “Minimal Inhibitory Concentration E. coli” value in the experiment with E.coli ATCC strain 25922 is listed as 32,64 μg/ml. The “Minimal Inhibitory Concentration S. aureus” value in experiment [1] was found to be 256 µg/mL. Besides, the “Minimal Inhibitory Concentration P. aeruginosa” value in experiment [2] is 8,16 μg/ml.
